The values below are quoted from earlier work in patent US20260207574A1, “Pharmaceutical composition of pitolisant hydrochloride and Their Process for the preparation” (MSN Laboratories Private Limited, R & D Center, priority 2022, published 2026).

Structures can show the parent of a compound that is named as a salt.

The conditions of data set [1]: until 75% RH; as per EMA.
For data set [2] the following is noted: leads to N-oxide derivative as main degradation product; as per EMA.

As to `Clc1ccc(CCCOCCCN2CCCCC2)cc1` [Pitolisant hydrochloride, 1-{3-[3-(4-chlorophenyl)propoxy]propyl} piperidine, hydrochloride], where the note is “acetone”, the solubility in acetone result is recorded as “freely soluble”. Under “cyclohexane”, the solubility in cyclohexane result is reported as “practically insoluble”. The solubility in ethanol result (ethanol) is reported as “very soluble”. In addition, the “solubility in methylene chloride” value (methylene chloride) was “very soluble”. Also, the solubility in water entry (water) is “very soluble”.

`Clc1ccc(CCCOCCCN2CCCCC2)cc1` [pitolisant]: the hygroscopicity entry in data set [1] is recorded as “not hygroscopic”. Moreover, the “solubility in water until pH 7.5” value (water, until pH 7.5, as per EMA) is “very soluble”. Also, in data set [2], the “sensitivity to oxidative conditions” value was “sensitive to excessive oxidative conditions”.
